From patent publication US20150087622A1, “NEW METHOD OF USE OF A PESTICIDE” (SYNGENTA PARTICIPATIONS AG, priority 2012, published 2015)
Where two headings read alike, the source gives them in different places.

Assays:
Diabrotica balteata = assay: Transovarial effects on Diabrotica balteata adults fed on sprayed bean plants (% egg mortality); format: in vivo; details: for mortality at 10 ppm / mortality at 25 ppm / mortality at 50 ppm: Diabrotica balteata
Method: The following IGRs in Table 1 were tested for their transovarial effects on Diabrotica balteata by observing percentage egg mortality.
Bean plants (Phaseolus vulgaris, var. Amata) were treated in an automatic spray chamber (ARO-1) with around 500 l/ha. After drying of the spray deposits, plants were placed in gauze cages and infested with newly hatched (0-24 h old) Diabrotica balteata adults. After seven days, treated plants were removed and replaced by non-treated plants. From day seven to day 38 eggs were collected in three-day intervals, counted and checked on number of hatched larvae (% egg mortality). Percentage egg mortality was calculated as the number of unhatched eggs per total number of eggs laid.

Spodoptera frugiperda = assay: Foliar spray application on cotton, larval mortality of Spodoptera frugiperda; format: in vivo; details: 4 DAT (days after treatment)
From the text: For example on both Spodoptera frugiperda and Plutella xylostella similar activities were obtained for the same rates: […]

Colorado potato beetle = details: cited from earlier work
[1] = egg laying period 1, read-out: % egg mortality: on egg laying period 1
[2] = egg laying period 2, read-out: % egg mortality: on egg laying period 2
[3] = egg laying period 3, read-out: % egg mortality: on egg laying period 3
[4] = egg laying period 4, read-out: % egg mortality: on egg laying period 4
[5] = egg laying period 5, read-out: % egg mortality: on egg laying period 5
[6] = egg laying period 6, read-out: % egg mortality: on egg laying period 6
[7] = egg laying period 7, read-out: % egg mortality: on egg laying period 7
[8] = egg laying period 8, read-out: % egg mortality: on egg laying period 8
[9] = egg laying period 9, read-out: % egg mortality: on egg laying period 9
[10] = egg laying period 10, read-out: % egg mortality: on egg laying period 10
[11] = egg laying period 11, read-out: % egg mortality: on egg laying period 11
[12] = egg laying period 12, read-out: % egg mortality: on egg laying period 12

For `O=C(NC(=O)c1c(F)cccc1F)Nc1ccc(OC(F)(F)C(F)OC(F)(F)F)c(Cl)c1` (single isomer, unassigned; (+)) [Rimon, (+)-I-[3-chloro-4-(1,1,2-trifluoro-2-trifluoromethoxyethoxy)phenyl]-3-(2,6-difluorobenzoyl)urea], the “total number of sterilised (unhatched) eggs, considered over the whole test period” value (“total number … over the whole test period” below) (Diabrotica balteata; 5 g AI ha^-1) was “≈ 25%”, the “total number … over the whole test period” value (Diabrotica balteata; 12.5 g AI ha^-1) was “≈ 25%” and the “total number … over the whole test period” value (Diabrotica balteata; 25 g AI ha^-1) was “≈ 90%”. The “days of effect (egg hatch inhibition) after a single foliar treatment” value (Diabrotica balteata; 50 g AI/ha during adult feeding on the crop plant) was “up to 21 days”, the mortality at 10 ppm (Diabrotica balteata; [1]) was 100% and the mortality at 10 ppm (Diabrotica balteata; [2]) was 100%. For the same molecule, the mortality at 10 ppm (Diabrotica balteata; [3]) was 99%, the mortality at 10 ppm (Diabrotica balteata; [4]) was 50% and the mortality at 10 ppm (Diabrotica balteata; [5]) was 10%. The mortality at 10 ppm (Diabrotica balteata; [6]) was 13%, the mortality at 10 ppm (Diabrotica balteata; [7]) was 10% and the mortality at 10 ppm (Diabrotica balteata; [8]) was 11%. It also gave a mortality at 10 ppm (Diabrotica balteata; [9]) of 18%, a mortality at 10 ppm (Diabrotica balteata; [10]) of 9% and a mortality at 10 ppm (Diabrotica balteata; [11]) of 9%. It also gave a mortality at 10 ppm (Diabrotica balteata; [12]) of 12%, a mortality at 25 ppm (Diabrotica balteata; [1]) of 100% and a mortality at 25 ppm (Diabrotica balteata; [2]) of 100%. It also gave a mortality at 25 ppm (Diabrotica balteata; [3]) of 100%, a mortality at 25 ppm (Diabrotica balteata; [4]) of 93% and a mortality at 25 ppm (Diabrotica balteata; [6]) of 25%. The mortality at 25 ppm (Diabrotica balteata; [7]) was 14%, the mortality at 25 ppm (Diabrotica balteata; [9]) was 22% and the mortality at 25 ppm (Diabrotica balteata; [10]) was 7%. It also gave a mortality at 25 ppm (Diabrotica balteata; [11]) of 0%, a mortality at 25 ppm (Diabrotica balteata; [12]) of 4% and a mortality at 50 ppm (Diabrotica balteata; [2]) of 100%. For the same molecule, the mortality at 50 ppm (Diabrotica balteata; [3]) was 100%, the mortality at 50 ppm (Diabrotica balteata; [4]) was 100% and the mortality at 50 ppm (Diabrotica balteata; [5]) was 100%. The mortality at 50 ppm (Diabrotica balteata; [6]) was 100%, the mortality at 50 ppm (Diabrotica balteata; [7]) was 100% and the mortality at 50 ppm (Diabrotica balteata; [8]) was 100%. For the same molecule, the mortality at 50 ppm (Diabrotica balteata; [9]) was 92%, the mortality at 50 ppm (Diabrotica balteata; [10]) was 29% and the mortality at 50 ppm (Diabrotica balteata; [11]) was 96%. The mortality at 50 ppm (Diabrotica balteata; [12]) was 41%, the “Spray interval” value (Diabrotica balteata; Rate 5 g AI/ha) was 7 days and the “Spray interval” value (Diabrotica balteata; Rate 12.5 g AI/ha) was 10 days. The “Spray interval” value (Diabrotica balteata; Rate 25 g AI/ha) was 21 days, the “rank for transovarial activity on Diabrotica balteata” value (Diabrotica balteata; among the IGRs tested) was “by far the best compound” and the “Transovarial effects on treated adults of Diabrotica balteata” value (Diabrotica balteata; at the used dose rates) was “Transovarial effects can be observed”. For the same molecule, the LC50 (Spodoptera frugiperda) was “LC50 = 1.1 ppm”, the “ability to economically stop egg hatching in Colorado potato beetle” value (Colorado potato beetle; 25 g AI ha^-1 (Cutler et al.)) was “insufficient” and the “viability of Colorado potato beetle eggs” value (Colorado potato beetle; adults feeding on novaluron-treated potato leaves, 87 g AI ha^-1 (Alyokhin et al.)) was “reduced viability”. For the same molecule, the “time of feeding on untreated leaves after which the effect reverses” value (Colorado potato beetle; after 87 g AI ha^-1 (Alyokhin et al.)) was 48 to 96 h.
